{"source": "patent US6602896B1", "about": "“p38MAPK inhibitor and uses thereof” (The Board of Trustees of the University of Arkansas, priority 1999, dated 2003)", "key": {"LDL receptor expression [1]": {"test_system": "LDL receptor expression", "test": "Northern blotting of LDL receptor mRNA in HepG2 cells", "assay_type": "cell-based, human", "conditions": "HepG2 cells; for effect on SB202190-induced LDL receptor expression: inhibitor added 30 min before SB202190 (2.5 μM, 4 h); for induction of LDL receptor expression (Northern blotting): inhibitor alone, 0.5% FBS", "description": "5×10^5 cells were plated on day 0. On day 2, cells were refed with fresh medium. On day. 4, cells were either left untreated (0) or treated for the indicated times with SB202190 (2.5 μM) in medium containing 0.5% FBS. Total RNA was isolated and subjected to Northern blotting to determine amounts of LDL receptor, squalene synthase (SS) genes, and actin mRNAs. Autoradiographs were quantitated densitometrically. LDL receptor mRNA levels were normalized to actin mRNA levels. In the bottom panel, results are expressed as the fold induction by SB 202190 as compared with uninduced cells (set at 1). Values obtained are the averages of three separate experiments, with the standard deviations shown.\nHepG2 cells were grown as described in FIG. 1. On day 4, medium was changed to either 10% LPDS alone or 10% LPDS supplemented with 25-hydroxycholesterol (2 μg/ml) and cholesterol (10 μg/ml), and after 2 hours, cells were treated with indicated concentrations of SB202190 for an additional 4 hours. Levels of LDL receptor and SS mRNAs were determined by Northern analysis and densitometry as described previously. RNA levels were normalized by comparison with levels of actin. Values obtained from cells cultured in the absence of sterols and SB202190 were set at 1. Values shown are the average of two different experiments.\nTotal RNA was subjected to Northern blot analysis, and the filter was hybridized with a ^32P-labeled LDL receptor probe. Values shown are the averages of two different experiments. […] Values obtained from the control cells grown in the absence of SB202190 or PD98059 were arbitrarily set at 1.\nHepG2 cells were grown as described in FIG. 1. On day 4, cells cultured for 1 h in 0.5% FBS containing different amounts of cycloheximide (1 μg/ml, 2 μg/ml, and 5 μg/ml) were then incubated with SB202190 (2.5 μM) for an additional 4 h. LDL receptor and actin mRNA levels were analyzed by Northern blotting of total RNA. Values obtained from cells with no additions were arbitrarily set at 1. […] Results shown are representative of one experiment.\nIn FIG. 8A, HepG2 cells were pretreated for 30 minutes with the indicated concentration of the above inhibitors and then treated with […] SB202190 for an additional 4 hours. Total RNA was subjected to Northern blotting for measurement of LDL receptor mRNA levels.\n(§1) Human hepatoma cell line HepG2 and its derivative HepG2-ΔRaf-1:ER cell line that stably expresses the ΔRaf-1:ER chimera were maintained as monolayer cultures in a humidified 5% CO2 atmosphere at 37° C. in Eagle's minimum essential medium (EMEM) (Bio Whittaker, Md.) supplemented with 10% fetal bovine serum (FBS) (Life Technologies Inc.), 2 mM L-glutamine, 20 units/ml penicillin and 20 μg/ml streptomycin sulphate.\nTotal RNA was isolated using TRIzol, and Northern blotting was done essentially as described earlier (43, 44). Briefly, 20 μg total cellular RNA was fractionated on 1% formaldehyde agarose gel and transferred to Zeta Probe membrane by capillary blotting. RNA blots were hybridized with LDL receptor and squalene synthase specific single-stranded M13 probes labeled with [α-^32P ]dCTP. Hybridized filters were washed and exposed to Kodak X-ray film. The relative intensities of specific bands were determined densitometrically within the linear range of the film on a model 300A laser densitometer (Molecular Dyanamics, Calif.) with Image Quant software. LDL receptor mRNA was normalized to squalene synthase (SS) (included in this study) or to α-actin (data not shown) mRNA level, and data for each point were plotted as the percentage of LDL receptor mRNA as compared to controls. […]"}, "p38^MAPK [2]": {"test_system": "p38^MAPK", "test": "p38MAPK activation by stress-inducers in HepG2-ΔRaf-1:ER cells", "assay_type": "cell-based, human", "conditions": "1 μM ICI 182,780 1.5 h, then anisomycin (50 ng/ml) or IL-1β (5 ng/ml) 30 min", "description": "(§2) Cells were either left untreated or stimulated with 1 μM ICI 182,780 for 1.5 h, and then treated with either anisomycin (50 ng/ml) or IL-1β(5 ng/ml) for 30 min. Cells were then lysed in SDS sample buffer, and equal amounts of whole cell lysates were separated by SDS-PAGE in 10% gels. Activated MAPKs levels were analyzed by blotting using anti-phospho-p42/44^MAPK, and anti-phospho-p38^MAPK. Protein levels were analyzed by using phosphorylation-independent anti-p42/44^MAPK following electrotransfer of total proteins onto nitrocellulose. Similar results were obtained in three separate experiments. […]\n(§3) Proteins were fractionated by SDS-PAGE with an 10% acrylamide separation gel, and the separated proteins were transferred to nitrocellulose, and processed as described previously (43, 44). […] After further washing in Tris/NaCl/Tween-20, membranes were incubated for 1 h with horseradish peroxidase-linked anti-IgG secondary antibody (Bio-Rad, diluted 1:5000), and immunoreactive proteins were detected by ECL as described by the supplier. Quantitative analyses of protein levels were performed by densitometric scanning of the autoradiograms, and are representative of 3 or more independent experiments.\n(§4) Whether inhibition or activation of p42/44^MAPK regulates p38^MAPK activation by stress-inducers was determined next. […]"}, "p42/44^MAPK [3]": {"test_system": "p42/44^MAPK", "test": "p42/44MAPK activation in HepG2-ΔRaf-1:ER cells", "assay_type": "cell-based, human", "conditions": "1 μM ICI 182,780", "description": "as §2, §3, §4"}, "LDL receptor expression [4]": {"test_system": "LDL receptor expression", "test": "Northern blotting of LDL receptor mRNA in HeLa cells", "assay_type": "cell-based", "conditions": "PD98059 (5 μM) added 30 min before SB202190 (2.5 μM) 4 h", "description": "PD98059 was added 30 min prior to addition of SB202190. After the indicated times, total RNA was isolated and subjected to Northern blotting. […] Total RNA was isolated using TRIzol, and Northern blotting was done essentially as described earlier (43, 44). Briefly, 20 μg total cellular RNA was fractionated on 1% formaldehyde agarose gel and transferred to Zeta Probe membrane by capillary blotting. RNA blots were hybridized with LDL receptor and squalene synthase specific single-stranded M13 probes labeled with [α-^32P ]dCTP. Hybridized filters were washed and exposed to Kodak X-ray film. The relative intensities of specific bands were determined densitometrically within the linear range of the film on a model 300A laser densitometer (Molecular […], Calif.) with Image Quant software. LDL receptor mRNA was normalized to squalene synthase (SS) (included in this study) or to α-actin (data not shown) mRNA level, and data for each point were plotted as the percentage of LDL receptor mRNA as compared to controls."}, "p42/44^MAPK [5]": {"test_system": "p42/44^MAPK", "test": "Immunoblot of phospho-p42/44MAPK in HepG2 cells", "assay_type": "cell-based, human", "conditions": "inhibitor added 30 min before SB202190 (2.5 μM, 4 h)", "description": "(§5) 2×10^5 cells were grown and treated as described in FIG. 1. After the indicated times, equal amounts of cell lysates were blotted with anti-phospho-p42/44^MAPK antibody, phosphorylation-independent p42/44^MAPK antibody, anti-phospho p46/54^JNK antibody, anti-phospho-MEK-1/2, or phosphorylation-independent MKP-1.\nHepG2 cells were cultured in the absence or presence of 1 μM staurosporine or 5 μM PD98059 for 30 min. SB202190 (2.5 μM) was then added to the cells for 4 h, cell lysate was subjected to immunoblotting to measure the phosphorylation levels of p42/44^MAPK and MEK-1/2.\nas §1\nProteins were fractionated by SDS-PAGE with an 10% acrylamide separation gel, and the separated proteins were transferred to nitrocellulose, and processed as described previously (43, 44). Briefly, membranes were incubated in 20 mM Tris-HCl, pH 7.6, 137 mM NaCl, 0.2% v/v Tween-20 (Tris/NaCl/Tween-20) with 5% w/v non-fat dried milk for 1 h, washed in Tris/NaCl/Tween-20 (3×5 min), and incubated for 1 h with primary antibody in Tris/NaCl/Tween-20 containing 1% milk at room temperature for non phospho-specific antibodies and overnight at 4° C. for phospho-specific antibodies. The following dilutions were used for individual antibodies against different proteins: p42/44^MAPK (1:1600); phosphop-42/44^MAPK (1:1000); phosphop-46/54^JNK (1:1000); phospho-p38^MAPK (1:1600); phospho-MEK-1/2 (1:1000); MKP-1 (1:1500). After further washing in Tris/NaCl/Tween-20, membranes were incubated for 1 h with horseradish peroxidase-linked anti-IgG secondary antibody (Bio-Rad, diluted 1:5000), and immunoreactive proteins were detected by ECL as described by the supplier. Quantitative analyses of protein levels were performed by densitometric scanning of the autoradiograms, and are representative of 3 or more independent experiments.\nHepG2 cells were incubated with SB202190, and the activity of p42/44^MAPK and p46/54^JNK was determined by immunoblot analysis with antibodies that recognized the activated phosphorylated forms of these kinases in cell extracts obtained at different times."}, "p38^MAPK [6]": {"test_system": "p38^MAPK", "conditions": "concentrations that completely blocked p42/44MAPK activation by MEK-1/2; cited from earlier work"}, "other MAPKs": {"test_system": "other MAPKs", "test": "Activity of other MAPKs on inhibition of p42/44MAPK", "assay_type": "cell-based", "conditions": "inhibition of p42/44MAPK with PD98059; data not shown"}, "[7]": {"test_system": "p38^MAPK α- and β-isoforms", "conditions": "cited from earlier work"}, "MEK-1/2": {"test_system": "MEK-1/2", "test": "Immunoblot of phospho-MEK-1/2 in HepG2 cells", "assay_type": "cell-based, human", "conditions": "1 μM staurosporine 30 min, then SB202190 (2.5 μM) 4 h", "description": "as §5\nHepG2 cells were cultured in the absence or presence of 1 μM staurosporine or 5 μM PD98059 for 30 min. SB202190 (2.5 μM) was then added to the cells for 4 h, cell lysate was subjected to immunoblotting to measure the phosphorylation levels of p42/44^MAPK and MEK-1/2. […]\nas §3"}}}
{"compound": "CN(C)CCCn1cc(C2=C(c3c[nH]c4ccccc34)C(=O)NC2=O)c2ccccc21", "note": "[Bis I]", "values": [{"measurement": "effect on SB202190-induced LDL receptor expression", "setting": "LDL receptor expression [1]", "result": "has no effect"}]}
{"compound": "Cn1c2ccccc2c2c3c(c4c5ccccc5n(CCC#N)c4c21)CNC3=O", "note": "[Go6976]", "values": [{"measurement": "effect on SB202190-induced LDL receptor expression", "setting": "LDL receptor expression [1]", "result": "has no effect"}]}
{"compound": "C[C@]12CC[C@@H]3c4ccc(O)cc4C[C@@H](CCCCCCCCC[S+]([O-])CCCC(F)(F)C(F)(F)F)[C@H]3[C@@H]1CC[C@@H]2O", "note": "(stereo partly shown) [ICI 182780]", "values": [{"measurement": "effect on p38MAPK activation by anisomycin or IL-1β", "setting": "p38^MAPK [2]", "result": "no significant effects"}, {"measurement": "stimulation of p42/44MAPK", "setting": "p42/44^MAPK [3]", "result": "stimulated p42/44^MAPK within minutes"}]}
{"compound": "COc1cccc(-c2cc(=O)c3ccccc3o2)c1N", "note": "[PD98059, 2-(2′-amino-3′-methoxyphenyl) oxanaphthalen-4-one]", "values": [{"measurement": "effect on SB202190-induced LDL receptor expression in HeLa cells", "setting": "LDL receptor expression [4]", "result": "blocked SB202190-induced LDL receptor expression"}, {"measurement": "effect on SB202190-induced p42/44MAPK phosphorylation/activation", "setting": "p42/44^MAPK [5]", "result": "inhibited"}, {"measurement": "effect on p38MAPK activation in response to IL-1β or TNF", "setting": "p38^MAPK [6]", "result": "failed to block p38^MAPK activation"}, {"measurement": "effect on SB202190-induced LDL receptor expression", "setting": "LDL receptor expression [1]", "result": "inhibited"}, {"measurement": "effect on activity of other MAPKs", "setting": "other MAPKs", "result": "has no effect on activity of other MAPKs"}]}
{"compound": "CCc1nc(-c2ccc(OC)cc2)[nH]c1-c1ccncc1", "note": "[SB202474]", "values": [{"measurement": "induction of LDL receptor expression (Northern blotting)", "setting": "LDL receptor expression [1]", "result": "did not induce LDL receptor expression"}]}
{"compound": "C[S+]([O-])c1ccc(-c2nc(-c3ccc(F)cc3)c(-c3ccncc3)[nH]2)cc1", "note": "(stereo not shown) [SB203580, 4-(4-Fluorophenyl)-2-(4-methylsulfinylphenyl)-5-(4-pyridyl) 1H-imidazole]", "values": [{"measurement": "inhibition of p38MAPK α- and β-isoforms", "setting": "[7]", "result": "selectively inhibit both p38^MAPK α- and β-isoforms"}, {"measurement": "most effective concentration for LDL receptor induction", "setting": "LDL receptor expression [1]", "result": 10, "unit": "µM"}, {"measurement": "induction of LDL receptor expression (Northern blotting)", "setting": "LDL receptor expression [1]", "result": "also induced LDL receptor expression"}]}
{"compound": "C[C@@H]1C[C@@H]([C@H](O)CC2CC(=O)NC(=O)C2)C(=O)[C@@H](C)C1", "note": "[cycloheximide]", "values": [{"measurement": "effect of inhibition of translation on SB202190-induced LDL receptor expression", "setting": "LDL receptor expression [1]; cycloheximide 1, 2, 5 μg/ml for 1 h, then SB202190 (2.5 μM) 4 h", "result": "no effect on LDL receptor expression"}]}
{"compound": "COc1ccc2c(c1)c(CC(=O)O)c(C)n2C(=O)c1ccc(Cl)cc1", "note": "[indomethacin]", "values": [{"measurement": "effect on LDL receptor expression", "setting": "LDL receptor expression [1]; 10 μM indomethacin", "result": "did not significantly alter LDL receptor expression"}]}
{"compound": "CN[C@@H]1C[C@H]2O[C@@](C)([C@@H]1OC)n1c3ccccc3c3c4c(c5c6ccccc6n2c5c31)C(=O)NC4", "note": "[staurosporine]", "values": [{"measurement": "effect on SB202190-induced p42/44MAPK phosphorylation/activation", "setting": "p42/44^MAPK [5]", "result": "blocked"}, {"measurement": "effect on SB202190-induced MEK-1/2 activation", "setting": "MEK-1/2", "result": "blocked"}, {"measurement": "effect on SB202190-induced LDL receptor expression", "setting": "LDL receptor expression [1]", "result": "completely prevented"}]}
{"compound": "calphostin C", "values": [{"measurement": "effect on SB202190-induced LDL receptor expression", "setting": "LDL receptor expression [1]", "result": "has no effect"}]}
